inhibition, change in vivo and IC50 data for 27 molecules are collected here from patent US5688787A, “Substituted β-lactam compounds useful as hypochlesterolemic agents and processes for the preparation thereof” (priority 1996, dated 1997).

For orientation: pIC50 means −log10 of the IC50, conventionally taken in molar units.

One test deals with T1, ACAT (Rattus norvegicus, UniProt Q7TQM4).
T1 construct: Rat liver microsomes are used as the source of ACAT; from tissue; host or cells: rat liver microsomes
T1 sequence (Q7TQM4 1-524): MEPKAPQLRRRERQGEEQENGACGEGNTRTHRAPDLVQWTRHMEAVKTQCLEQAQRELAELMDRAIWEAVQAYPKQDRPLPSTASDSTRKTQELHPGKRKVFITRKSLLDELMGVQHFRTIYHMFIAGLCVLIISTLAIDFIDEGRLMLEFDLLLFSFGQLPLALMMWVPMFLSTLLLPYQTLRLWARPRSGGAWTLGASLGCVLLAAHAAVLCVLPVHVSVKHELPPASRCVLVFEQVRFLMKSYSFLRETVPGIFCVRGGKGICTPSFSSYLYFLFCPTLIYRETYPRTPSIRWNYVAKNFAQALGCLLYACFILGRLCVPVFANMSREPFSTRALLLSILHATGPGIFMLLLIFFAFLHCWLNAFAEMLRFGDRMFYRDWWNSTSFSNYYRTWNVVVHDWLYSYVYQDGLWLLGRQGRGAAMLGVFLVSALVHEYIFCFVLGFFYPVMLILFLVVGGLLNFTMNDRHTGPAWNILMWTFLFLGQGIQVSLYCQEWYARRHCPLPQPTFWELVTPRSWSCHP
The test can be described thus: ACAT Assay (in vitro). It counts as biochemical. The settings on record: for inhibition at 10 µM: Conc. 10 µM, negative = apparent stimulation, read-out: ACAT (in vitro) % Inhib.; for pIC50: rat liver microsomes, read-out: ACAT (in vitro) IC50. Background: Microsomes from liver hold many membrane-bound enzymes, among them those of drug oxidation.

The next test deals with Hyperlipidemic Hamster. The test can be described thus: In Vivo Assay of Hypolipidemic Agents Using the Hyperlipidemic Hamster. As to conditions: Mesocricetus auratus, po, 168 h, 7 days, percent change versus control, negative = lowering; for change in vivo at 50 mg/kg: 50 mg/kg once daily oral; for change in vivo at 25 mg/kg: 25 mg/kg once daily oral; for change in vivo at 85 mg/kg: 85 mg/kg once daily oral. The method in brief: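 Hamsters, six per group, were fed chow with 0.5% cholesterol for seven days and given compound once daily by oral gavage in corn oil; controls received corn oil alone. Plasma (EDTA) and liver lipids were measured at sacrifice. Values are percent change versus control, so negative means lowering.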

[1] abbreviates: read-out: % Reduction (in vivo) Cholest. Esters.
The mark [2] stands for this setting: read-out: % Reduction (in vivo) Serum Cholest.

pIC50: −log10 of the molar value. Read-outs that look alike come from different tables or passages of the source.

Protocol for ACAT: This assay measures the activity of ACAT by measuring the ACAT-mediated transfer of tritiated oleic acid from acyl-CoA to cholesterol to give labelled cholesteryl oleate. Rat liver microsomes are used as the source of ACAT. Assays are performed in round bottom microtiterplates using a total incubation volume of 50 μL. […] The microtiterplate is then floated on the surface of a 37° C. water bath for fifteen minutes. Incubations are started by the addition of 3 μL ^3 H-acyl CoA (1 μCi/well, final concentration of 10 μM acyl CoA). The plate is then returned to the water bath for 15 minutes. The incubations are then terminated by application of 15 μL from each incubation to individual lanes on a thin layer plate (Silica Gel GF 20×20 cm). Standards are applied to several lanes so that the cholesteryl ester band can be identified. After drying, the plates am eluted with 90:10:1 petroleum ether:diethyl ether:acetic acid. The standards am visualized via iodine vapor, and the regions corresponding to cholesteryl ester are scraped into 7 mL scintillation vials. 4 mL of scintillant are added to each vial, and the radioactivity quantified. Background count is determined by the boiled controls. Full activity is determined by activity in the presence of vehicle. The percent inhibition is calculated by subtracting the background from both control and test samples, and the test value is calculated as a percentage of the control.
For the in vitro ACAT data, negative percent inhibition denotes apparent stimulation,while positive numbers denote inhibition.

Take `COc1ccc(N2C(=O)[C@@](C)(CCCCc3ccccc3)[C@@H]2c2ccccc2)cc1` (relative stereo) [Example 3K]: at ACAT, the inhibition at 10 µM was 19%. In addition, the change in vivo at 50 mg/kg with Hyperlipidemic Hamster (setting [1]) and in the test on Hyperlipidemic Hamster (setting [2]) was 0% throughout.

Turning to `COc1ccc(N2C(=O)C(c3ccccc3)(C3CCCC3)C2c2ccccc2)cc1` (centres unmarked) [Example 1AC], the inhibition at 10 µM on ACAT turned out to be 40%. The change in vivo at 50 mg/kg in the test on Hyperlipidemic Hamster (setting [1]) is -33%; in the test on Hyperlipidemic Hamster (setting [2]), -16%.

As to `CC[C@@H]1C(=O)N(c2ccc(OC)cc2)[C@H]1c1ccc([N+](=O)[O-])cc1` (relative stereo) [Example 1AJ], the inhibition at 10 µM on ACAT was -17%. The change in vivo at 50 mg/kg in the test with Hyperlipidemic Hamster (setting [1]) and in the test on Hyperlipidemic Hamster (setting [2]) was 0% in each case.

In the case of `COc1ccc(N2C(=O)[C@@H](CCCc3ccccc3)[C@H]2c2ccc(S(C)(=O)=O)cc2)cc1` (relative stereo) [Example 17A], the inhibition at 10 µM at ACAT was determined as 38%. Moreover, the results for the change in vivo at 50 mg/kg in the test on Hyperlipidemic Hamster (setting [1]) and in the test on Hyperlipidemic Hamster (setting [2]) were -25% and -11%, respectively.

Regarding `CC[C@]1(CCCc2ccccc2)C(=O)N(c2ccc(OC)cc2)[C@H]1c1ccc(OC)cc1` (relative stereo) [Example 3M], at ACAT, the inhibition at 10 µM was found to be 13%. The change in vivo at 50 mg/kg with Hyperlipidemic Hamster (setting [1]) and with Hyperlipidemic Hamster (setting [2]) was 0% in each case.

In the case of `CCCCCCCCCC[C@]1(c2ccccc2)C(=O)N(c2ccc(OC)cc2)[C@H]1c1ccccc1` (relative stereo) [Example 3R], the inhibition at 10 µM at ACAT was -8%. In addition, the change in vivo at 50 mg/kg with Hyperlipidemic Hamster (setting [1]) and with Hyperlipidemic Hamster (setting [2]) was 0% each time.

In the case of `COc1ccc(N2C(=O)[C@H](CCCc3ccccc3)[C@H]2c2ccc(O)cc2)cc1` (relative stereo) [Example 8F], at ACAT, the inhibition at 10 µM came to 8%. The change in vivo at 25 mg/kg in the test with Hyperlipidemic Hamster (setting [1]) is -45%; in the test on Hyperlipidemic Hamster (setting [2]), -20%. Further, the change in vivo at 50 mg/kg with Hyperlipidemic Hamster (setting [1]) was -48%; with Hyperlipidemic Hamster (setting [2]), -16%.

`CCCCCCCCCC[C@]1(CC)C(=O)N(c2c(OC)cc(OC)cc2OC)[C@@H]1c1ccccc1` (relative stereo) [Example 3V]: on ACAT, the inhibition at 10 µM stood at 60% and the pIC50 is 5.19. For the same molecule, in the test with Hyperlipidemic Hamster (setting [1]), the change in vivo at 50 mg/kg came out at 0%. For the same molecule, the change in vivo at 50 mg/kg with Hyperlipidemic Hamster (setting [2]) was determined as 0%.

In the case of `COc1ccc(N2C(=O)[C@H](CCCc3ccccc3)[C@H]2c2ccc(C=O)cc2)cc1` (relative stereo) [Example 16A], the inhibition at 10 µM on ACAT turned out to be 55%. Besides, the change in vivo at 50 mg/kg with Hyperlipidemic Hamster (setting [1]) is -53%; in the test on Hyperlipidemic Hamster (setting [2]), -30%.

In the case of `COc1ccc(N2C(=O)[C@H](CCCc3ccccc3)[C@@H]2c2ccccc2)cc1` (relative stereo) [Example 1B], the inhibition at 10 µM at ACAT was 28%. Moreover, the change in vivo at 50 mg/kg with Hyperlipidemic Hamster (setting [1]) and in the test on Hyperlipidemic Hamster (setting [2]) was 0% throughout.

Turning to `COc1ccc(N2C(=O)[C@H](CCCc3ccccc3)[C@@H]2c2ccc(OC)c(OC)c2)cc1` (relative stereo) [Example 1BB], the inhibition at 10 µM on ACAT was -16%. The change in vivo at 50 mg/kg in the test on Hyperlipidemic Hamster (setting [1]) and in the test on Hyperlipidemic Hamster (setting [2]) was 0% in each case.

`COc1ccc(N2C(=O)[C@H](CCCc3ccccc3)[C@H]2c2ccc(C(F)(F)F)cc2)cc1` (relative stereo) [Example 1BG]: the inhibition at 10 µM at ACAT was 3%. Further, the change in vivo at 50 mg/kg in the test with Hyperlipidemic Hamster (setting [1]) was 0%; in the test with Hyperlipidemic Hamster (setting [2]), 12%.

As for `COc1ccc(N2C(=O)[C@H](CCCc3ccccc3)[C@H]2c2ccncc2)cc1` (relative stereo) [Example 1AR], the inhibition at 10 µM on ACAT is -41%. The figures for the change in vivo at 50 mg/kg in the test with Hyperlipidemic Hamster (setting [1]) and in the test on Hyperlipidemic Hamster (setting [2]) were -25% and -22%, respectively.

Take `CC[C@@]1(CCCc2ccccc2)C(=O)N(c2c(OC)cc(OC)cc2OC)[C@H]1c1ccccc1` (relative stereo) [Example 3D]: at ACAT, the inhibition at 10 µM stood at 42%. The pIC50 on ACAT is 4.92. In addition, the change in vivo at 50 mg/kg with Hyperlipidemic Hamster (setting [1]) and in the test with Hyperlipidemic Hamster (setting [2]) was 0% throughout.

Regarding `COc1ccc([C@@H]2[C@@H](CCCCc3ccccc3)C(=O)N2c2ccc(OC)cc2)cc1` (relative stereo) [Example 5AB], the inhibition at 10 µM on ACAT was 30%. In addition, the change in vivo at 50 mg/kg was -72% in the test with Hyperlipidemic Hamster (setting [1]) and -28% in the test on Hyperlipidemic Hamster (setting [2]).

As to `COc1ccc([C@H]2[C@@H](CCCCc3ccccc3)C(=O)N2c2ccc(OC)cc2)cc1` (relative stereo) [Example 1CI], the inhibition at 10 µM at ACAT worked out at 26%. Moreover, the change in vivo at 50 mg/kg is -23% in the test on Hyperlipidemic Hamster (setting [1]) and -8% in the test on Hyperlipidemic Hamster (setting [2]).

On to `COc1ccc([C@H]2[C@@H](CCOc3ccc(F)cc3)C(=O)N2c2ccc(OC)cc2)cc1` (relative stereo) [Example 1CG], for which the inhibition at 10 µM at ACAT came to 8%. The change in vivo at 50 mg/kg is -61% in the test on Hyperlipidemic Hamster (setting [1]) and -30% in the test on Hyperlipidemic Hamster (setting [2]).

Turning to `COc1ccc(N2C(=O)[C@@H](CCCc3ccccc3)[C@@H]2c2cccs2)cc1` (relative stereo) [Example 1BQ], on ACAT, the inhibition at 10 µM was 35%. For the same molecule, the figures for the change in vivo at 50 mg/kg with Hyperlipidemic Hamster (setting [1]) and in the test with Hyperlipidemic Hamster (setting [2]) were -17% and 0%, respectively.

As to `COc1ccc([C@H]2[C@@H](CCOc3ccccc3)C(=O)N2c2ccc(OC)cc2)cc1` (relative stereo) [Example 1CD], on ACAT, the inhibition at 10 µM stood at 84% and the pIC50 was 5.15. The change in vivo at 50 mg/kg in the test on Hyperlipidemic Hamster (setting [1]) was -23%. Also, in the test with Hyperlipidemic Hamster (setting [2]), the change in vivo at 50 mg/kg amounted to 0%.

`COc1ccc([C@H]2[C@@H](CCc3ccccc3)C(=O)N2c2ccc(OC)cc2)cc1` (relative stereo) [Example 1CC]: on ACAT, the inhibition at 10 µM worked out at 46%. Further, the change in vivo at 50 mg/kg with Hyperlipidemic Hamster (setting [1]) and in the test on Hyperlipidemic Hamster (setting [2]) was 0% each time.

Consider `COc1ccc(N2C(=O)[C@@H](CCCc3ccccc3)[C@@H]2c2ccccc2)cc1` (relative stereo) [Example 1C], for which the inhibition at 10 µM at ACAT came to 22%. Also, the change in vivo at 50 mg/kg with Hyperlipidemic Hamster (setting [1]) was -15%; in the test with Hyperlipidemic Hamster (setting [2]), -6%.

Regarding `CCCCCCCCCC[C@]1(C)C(=O)N(c2ccc(OC)cc2)[C@H]1c1ccccc1` (relative stereo) [Example 3Y], on ACAT, the inhibition at 10 µM was -33%. The change in vivo at 50 mg/kg in the test on Hyperlipidemic Hamster (setting [1]) and in the test on Hyperlipidemic Hamster (setting [2]) was 0% throughout.

On to `CC[C@@]1(CCCc2ccccc2)C(=O)N(c2ccc(OC)cc2)[C@H]1c1ccccc1` (relative stereo) [Example 3A], for which, at ACAT, the inhibition at 10 µM worked out at 33%. For the same molecule, the figures for the change in vivo at 50 mg/kg with Hyperlipidemic Hamster (setting [1]) and in the test with Hyperlipidemic Hamster (setting [2]) were -29% and -12%, respectively.

`CCCCCCCCCC[C@H]1C(=O)N(c2ccc(OC)cc2)[C@H]1c1ccccc1` (relative stereo) [Example 1S]: on ACAT, the inhibition at 10 µM is -19%. The change in vivo at 85 mg/kg was -32% in the test with Hyperlipidemic Hamster (setting [1]) and 0% in the test with Hyperlipidemic Hamster (setting [2]).

On to `COc1ccc([C@H]2[C@@H](CCCCCCc3ccccc3)C(=O)N2c2ccc(OC)cc2)cc1` (relative stereo) [Example 1CE], for which, at ACAT, the inhibition at 10 µM is 15%. Further, the change in vivo at 50 mg/kg in the test with Hyperlipidemic Hamster (setting [1]) is -17%; in the test with Hyperlipidemic Hamster (setting [2]), -19%.

With `COc1ccc(N2C(=O)C(CCCc3ccccc3)(CCCc3ccccc3)C2C=Cc2ccccc2)cc1` (centres unmarked) [Example 3N], on ACAT, the inhibition at 10 µM came out at 62%. Besides, the change in vivo at 50 mg/kg with Hyperlipidemic Hamster (setting [1]) and with Hyperlipidemic Hamster (setting [2]) was 0% throughout.

In the case of `COc1cc(OC)c(N2C(=O)C(CCCc3ccccc3)C2c2ccccc2)c(OC)c1` (centres unmarked) [Example 1F], the inhibition at 10 µM on ACAT stood at 61%. Further, the values for the change in vivo at 50 mg/kg in the test on Hyperlipidemic Hamster (setting [1]) and with Hyperlipidemic Hamster (setting [2]) were 20% and 0%, respectively.
